Measured values: patent US20250059162A1, “MULTI-PROTEIN DEGRADATION AGENT HAVING IMIDE SKELETON” (SUZHOU KINTOR PHARMACEUTICALS, INC., priority 2021, published 2025)

Test system: HL60 cells
Assay: Anti-proliferation on HL60 cells (CellTiter-Glo, 3 days)
Assay type: cell-based
Settings: Homo sapiens, HL-60, 72 h, 3 days incubation, CTG luminescence, IC50 by XLfit, read-out: HL60 cells Proliferation inhibitory activity
Method: HL60 cells (Cell Bank of Chinese Academy of Sciences) in the logarithmic growth phase were counted and plated evenly in a 96-well transparent bottom white plate at 20000 cells per well and 100 μL per well.
A certain amount of the compound of the present invention was weighed and diluted with DMSO to a 10 mM stock solution. The culture medium RPMI-1640 (meilunbio, MA0215) corresponding to the cells were taken, and the compound was diluted to the concentration required by the test, shaken gently and mixed evenly. 50 μL of the gradient dilution of the diluted compound was added to each well of the plated cells, and 50 μL of 0.1% DMSO was added to the control group. The plate was shaken gently, mixed evenly and incubated in a cell culture incubator for 3 days.
• 3.1 The CellTiter-Glo™ (CTG) (purchased from Promega, Cat. No. G9242) reagent was taken in advance from the −20° C. refrigerator and equilibrated to room temperature in the dark. Cell Titer-Glo buffer and Cell Titer-Glo substrate were mixed at a ratio of 1:1 to prepare a CTG detection reagent. • 3.2 The 96-well plate was taken out and inspected under a microscope for growth. • 3.3 The bottom of the 96-well plate was tagged with white paper, and then the plate was wrapped with tin foil paper, shaken at 37° C. at 300 r for 10 min and mixed evenly. • 3.4. 50 μL of CTG detection reagent was added to each well, Luminescence signal was detected using a microplate reader Biotek Synergy Hi, and the inhibition rate was calculated. IC50 values of the compounds were calculated by XLfit 5.5.0 software to evaluate the proliferation inhibitory activity on HL60 cells.

Structure (SMILES) | IC50
O=C1CCC(N2Cc3cc(NC(=O)CC4CCN(c5ncc(-c6ccc(Cl)cc6)cn5)CC4)ccc3C2=O)C(=O)N1 (centres unmarked) [Compound A55] | < 0.2 nM
O=C1C[C@H](N2Cc3cc(CNCC4CCN(c5ncc(-c6cccc(F)c6)cc5F)CC4)ccc3C2=O)C(=O)N1 [Compound A170] | 9860 nM
Cc1cc(Cl)cc(-c2cnc(N3CCC(CNCc4ccc5c(c4)CN(C4CCC(=O)NC4=O)C5=O)CC3)c(C(F)(F)F)c2)c1 (centres unmarked) [Compound A114] | 11 nM
O=C1CCC(N2Cc3cc(NC(=O)CC4CCN(c5ncc(-c6ccccc6Cl)cn5)CC4)ccc3C2=O)C(=O)N1 (centres unmarked) [Compound A54] | < 0.2 nM
O=C1CCC(n2nnc3ccc(CNCC4CCN(c5ncc(-c6cccc(Cl)c6)cc5C(F)(F)F)CC4)cc3c2=O)C(=O)N1 (centres unmarked) [Compound A154] | 116 nM
O=C1CCC(N2Cc3cc(C(=O)NCC4CCN(C(=O)NCCn5c6ccccc6c6cccnc65)CC4)ccc3C2=O)C(=O)N1 (centres unmarked) [Compound A2] | 58 nM
O=C1CCC(N2Cc3cc(CNCC4(F)CCN(c5ncc(-c6cccc(F)c6)cc5F)CC4)ccc3C2=O)C(=O)N1 (centres unmarked) [Compound A122] | 1.76 nM
O=C1CCC(N2Cc3cc(NC(=O)CC4CCN(c5ncc(-c6ccncc6)cn5)CC4)ccc3C2=O)C(=O)N1 (centres unmarked) [Compound A60] | 60 nM
O=C1CCC(N2Cc3c(ccc(CNCC4CCN(c5ncc(-c6cccc(Cl)c6)cc5C(F)(F)F)CC4)c3F)C2=O)C(=O)N1 (centres unmarked) [Compound A139] | 17.7 nM
O=C1CCC(N2Cc3cc(C(=O)NCC4CCN(c5nccc(-c6cccc7ccccc67)n5)CC4)ccc3C2=O)C(=O)N1 (centres unmarked) [Compound A12] | 4.5 nM
O=C1CCC(N2Cc3cc(C(=O)NCC4CCN(c5ccc(-c6ccc7ccccc7c6)cn5)CC4)ccc3C2=O)C(=O)N1 (centres unmarked) [Compound A40] | 4.3 nM
O=C1CCC(N2C(=O)c3cc4c(cc3C2=O)CN(CC2CCN(c3ncc(-c5cccc(Cl)c5)cc3C(F)(F)F)CC2)C4)C(=O)N1 (centres unmarked) [Compound A138] | 1100 nM
COc1cccc(-c2cnc(N3CCC(CCNc4ccc5c(c4)CN(C4CCC(=O)NC4=O)C5=O)CC3)c(C(F)(F)F)c2)c1 (centres unmarked) [Compound A132] | 8.37 nM
O=C1CCC(c2coc3cc(CNCC4CCN(c5ncc(-c6cccc(Cl)c6)cc5C(F)(F)F)CC4)ccc23)C(=O)N1 (centres unmarked) [Compound A149] | 1740 nM
O=C1CCC(N2Cc3cc(CNCC4CCN(c5ncc(-c6cccc(Cl)c6)cc5C(F)(F)F)CC4)ncc3C2=O)C(=O)N1 (centres unmarked) [Compound A142] | 397 nM
COc1cccc(-c2cnc(N3CCC(F)(CNCc4ccc5c(c4)CN(C4CCC(=O)NC4=O)C5=O)CC3)c(F)c2)c1 (centres unmarked) [Compound A120] | 2.47 nM
N#CC1(CNCc2ccc3c(c2)CN(C2CCC(=O)NC2=O)C3=O)CCN(c2ncc(-c3cccc(Cl)c3)cc2C(F)(F)F)CC1 (centres unmarked) [Compound A89] | 9.2 nM
Cc1cccc(-c2cnc(N3CCC(CNCc4ccc5c(c4)CN([C@H]4CCC(=O)NC4=O)C5=O)CC3)c(C(F)(F)F)c2)c1 [Compound A123] | < 3.04 nM

Structure (SMILES) | IC50
O=C1CCC(NCc2ccc(CNCC3CCN(c4ncc(-c5cccc(Cl)c5)cc4C(F)(F)F)CC3)cc2)C(=O)N1 (centres unmarked) [Compound A165] | 9560 nM
O=C1CCC(N2Cc3cc(NC(=O)CC4CCN(c5nccc(-c6cccc7ccccc67)n5)CC4)ccc3C2=O)C(=O)N1 (centres unmarked) [Compound A13] | 6.4 nM
O=C1CCC(N2C(=O)c3cccc4c(CNCC5CCN(c6ncc(-c7cccc(Cl)c7)cc6C(F)(F)F)CC5)ccc2c34)C(=O)N1 (centres unmarked) [Compound A174] | 3920 nM
O=C1CCC(NC(=O)c2ccc(CNCC3CCN(c4ncc(-c5cccc(Cl)c5)cc4C(F)(F)F)CC3)cc2)C(=O)N1 (centres unmarked) [Compound A155] | 825 nM
O=C1CCC(N2Cc3cc(NC(=O)CC4CCN(c5ccc(-c6nccc7ccccc67)cn5)CC4)ccc3C2=O)C(=O)N1 (centres unmarked) [Compound A46] | < 0.2 nM
O=C1CC[C@H](N2Cc3cc(CNCC4CCN(c5ncc(-c6cccc(F)c6)cc5F)CC4)ccc3C2=O)C(=O)N1 [Compound A125] | 2.48 nM
O=C1CCC(NC(=O)c2ccc(CNCC3CCN(c4ncc(-c5cccc(Cl)c5)cc4C(F)(F)F)CC3)c(F)c2)C(=O)N1 (centres unmarked) [Compound A159] | 6700 nM
O=C1CCC(N2Cc3cc(NC(=O)CC4CCN(C(=O)Cn5c6ccccc6c6cccnc65)CC4)ccc3C2=O)C(=O)N1 (centres unmarked) [Compound A11] | 39 nM
O=C1CCC(N2Cc3cc(NC(=O)CC4CCN(c5ccc(-c6cccc(Cl)c6)cn5)CC4)ccc3C2=O)C(=O)N1 (centres unmarked) [Compound A56] | < 0.2 nM
O=C1CCC(n2cc(-c3ccc(CNCC4CCN(c5ncc(-c6cccc(Cl)c6)cc5C(F)(F)F)CC4)cc3)nn2)C(=O)N1 (centres unmarked) [Compound A168] | 109 nM
COc1cccc(-c2cnc(N3CCC(F)(CNCc4ccc5c(c4)CN(C4CCC(=O)NC4=O)C5=O)CC3)c(C(F)(F)F)c2)c1 (centres unmarked) [Compound A121] | 4.69 nM
O=C1CCC(N2Cc3cc(NC(=O)CC4CCN(c5cnc(-c6cccc7ccccc67)cn5)CC4)ccc3C2=O)C(=O)N1 (centres unmarked) [Compound A31] | < 0.2 nM
O=C1CCC(N2Cc3cc(CNCC4CCN(c5ncc(-c6cccc(OC(F)(F)F)c6)cc5C(F)(F)F)CC4)ccc3C2=O)C(=O)N1 (centres unmarked) [Compound A96] | 1.8 nM
O=C1CCC(N2Cc3cc(CNCC4CCN(c5cc(F)c(-c6cccc(Cl)c6)cn5)CC4)ccc3C2=O)C(=O)N1 (centres unmarked) [Compound A101] | 10.9 nM
O=C1CCC(N2Cc3cc(C(=O)NCC4CCN(c5cncc(-c6cccc7ccccc67)c5)CC4)ccc3C2=O)C(=O)N1 (centres unmarked) [Compound A18] | 5.5 nM
O=C1CCC(N2Cc3cc(CNCC4CCN(c5ncc(-c6cccc(Cl)c6)cc5[N+](=O)[O-])CC4)ccc3C2=O)C(=O)N1 (centres unmarked) [Compound A78] | 3 nM
O=C1CCC(N2Cc3cc(C(=O)NCC4CCN(c5ccc(-c6cccc7ccccc67)nc5)CC4)ccc3C2=O)C(=O)N1 (centres unmarked) [Compound A36] | 0.3 nM
O=C1CC[C@@H](N2Cc3cc(CNCC4CCN(c5ncc(-c6cccc(F)c6)cc5F)CC4)ccc3C2=O)C(=O)N1 [Compound A126] | 6.7 nM

The next lines start with the values.

IC50 | Structure (SMILES)
4.1 nM | O=C1CCC(N2Cc3cc(NC(=O)CC4CCN(c5ncc(Br)cn5)CC4)ccc3C2=O)C(=O)N1 (centres unmarked) [Compound A48]
0.4 nM | CN(C)c1cccc(-c2cnc(N3CCC(CNCc4ccc5c(c4)CN(C4CCC(=O)NC4=O)C5=O)CC3)c(C(F)(F)F)c2)c1 (centres unmarked) [Compound A97]
3.97 nM | O=C1CCC(N2Cc3cc(CNCC4CCN(c5ncc(-c6cccc(Cl)c6)cc5C(F)F)CC4)ccc3C2=O)C(=O)N1 (centres unmarked) [Compound A118]
< 0.2 nM | O=C1CCC(N2Cc3cc(NC(=O)CC4CCN(c5ccc(-c6cccc(Cl)c6)nc5)CC4)ccc3C2=O)C(=O)N1 (centres unmarked) [Compound A57]
6.75 nM | O=C1CC[C@H](N2Cc3cc(CNCC4(F)CCN(c5ncc(-c6cccc(Cl)c6)cc5C(F)(F)F)CC4)ccc3C2=O)C(=O)N1 [Compound A127]
9.04 nM | O=C1CC[C@@H](N2Cc3cc(CNCC4(F)CCN(c5ncc(-c6cccc(Cl)c6)cc5C(F)(F)F)CC4)ccc3C2=O)C(=O)N1 [Compound A128]
< 0.2 nM | O=C1CCC(N2Cc3cc(NC(=O)CC4CCN(c5ccc(-c6cccc7ccccc67)cn5)CC4)ccc3C2=O)C(=O)N1 (centres unmarked) [Compound A35]
1570 nM | O=C1C[C@@H](N2Cc3cc(CNCC4CCN(c5ncc(-c6cccc(Cl)c6)cc5C(F)(F)F)CC4)ccc3C2=O)C(=O)N1 [Compound A171]
25.7 nM | O=C1CCC(N2Cc3cc(CCCN4CCN(c5ncc(-c6cccc(Cl)c6)cc5C(F)(F)F)CC4)ccc3C2=O)C(=O)N1 (centres unmarked) [Compound A135]
1.5 nM | O=C1CCC(N2Cc3cc(NC(=O)CC4CCN(c5ncc(C6CC6)cn5)CC4)ccc3C2=O)C(=O)N1 (centres unmarked) [Compound A49]
6660 nM | O=C1CCC(NC(=O)c2ccc(CNCC3CCN(c4ncc(-c5cccc(Cl)c5)cc4C(F)(F)F)CC3)cc2F)C(=O)N1 (centres unmarked) [Compound A158]
2670 nM | O=C1CCC(NC(=O)c2ccc(C(=O)NCC3CCN(c4ncc(-c5cccc(Cl)c5)cc4C(F)(F)F)CC3)cc2)C(=O)N1 (centres unmarked) [Compound A166]
0.9 nM | O=C1CCC(N2Cc3cc(C(=O)NCC4CCN(c5cccc(-c6cccc7ccccc67)n5)CC4)ccc3C2=O)C(=O)N1 (centres unmarked) [Compound A14]
< 0.2 nM | O=C1CCC(N2Cc3cc(NC(=O)CC4CCN(c5ccc(-c6cccc(C(F)(F)F)c6)cn5)CC4)ccc3C2=O)C(=O)N1 (centres unmarked) [Compound A58]
0.7 nM | O=C1CCC(N2Cc3cc(NC(=O)CC4CCN(c5ncc(-c6ccccn6)cn5)CC4)ccc3C2=O)C(=O)N1 (centres unmarked) [Compound A59]
< 0.2 nM | O=C1CCC(N2Cc3cc(C(=O)NCC4CCN(c5ccc(-c6cccc7ccccc67)cn5)CC4)ccc3C2=O)C(=O)N1 (centres unmarked) [Compound A34]
3.7 nM | O=C1CCC(N2Cc3cc(C(=O)NCC4CCN(c5ncc(-c6cccc7ccccc67)o5)CC4)ccc3C2=O)C(=O)N1 (centres unmarked) [Compound A27]
< 0.2 nM | O=C1CCC(N2Cc3cc(NC(=O)CC4CCN(c5ncc(-c6cccc7cccc(F)c67)s5)CC4)ccc3C2=O)C(=O)N1 (centres unmarked) [Compound A26]
3 nM | COc1cc(Cl)cc(-c2cnc(N3CCC(CNCc4ccc5c(c4)CN(C4CCC(=O)NC4=O)C5=O)CC3)c(C(F)(F)F)c2)c1 (centres unmarked) [Compound A113]
1.2 nM | NC(=O)c1cc(-c2cccc(Cl)c2)cnc1N1CCC(CNCc2ccc3c(c2)CN(C2CCC(=O)NC2=O)C3=O)CC1 (centres unmarked) [Compound A99]
